Measurements reported in publication PMC6694038, “Pharmacogenomic–pharmacokinetic study of selective estrogen-receptor modulators with intra-patient dose escalation in breast cancer” (Breast Cancer (Tokyo, Japan), 2019).
Like-named read-outs stand apart in the source and are kept apart here.

Tests used:
[1] = Hot flush grade (CTCAE v3.0) in the screening study; type: in vivo, breast cancer patients; details: screening study
Source text: (§1) We obtained data on compliance and the grade of hot flush as defined by the Common Terminology Criteria for Adverse Events v3.0.

[2] = Source text: Written informed consent was obtained from all the participants included in the study. The patient enrolment period for the screening study started on February 1, 2009 and ended on July 31, 2012.
as §1
The p value was not calculated if there were no events.

CN(C)CCOc1ccc(/C(=C(/CCCl)c2ccccc2)c2ccccc2)cc1 [TOR, toremifene]
Hot flush grade 0, % of patients ([1]; TOR 40 mg): 57.4% | Hot flush grade 0, patients ([1]; TOR 40 mg): 35 | Hot flush grade 1, % of patients ([1]; TOR 40 mg): 32.8% | Hot flush grade 1, patients ([1]; TOR 40 mg): 20 | Hot flush grade 2, % of patients ([1]; TOR 40 mg): 9.8% | Hot flush grade 2, patients ([1]; TOR 40 mg): 6 | Hot flush grade 3, % of patients ([1]; TOR 40 mg): 0.0% | Hot flush grade 3, patients ([1]; TOR 40 mg): 0 | Hot flush grade 0, % of patients ([1]; TOR 120 mg): 88.9% | Hot flush grade 0, patients ([1]; TOR 120 mg): 24 | Hot flush grade 1, % of patients ([1]; TOR 120 mg): 11.1% | Hot flush grade 1, patients ([1]; TOR 120 mg): 3 | Hot flush grade 2, % of patients ([1]; TOR 120 mg): 0.0% | Hot flush grade 2, patients ([1]; TOR 120 mg): 0 | Hot flush grade 3, % of patients ([1]; TOR 120 mg): 0.0% | Hot flush grade 3, patients ([1]; TOR 120 mg): 0 | Grade and frequency of hot flushes compared with TAM 20 mg or TOR 40 mg ([1]; patients taking TOR 120 mg): lower grade and frequency of hot flushes | Cre elevation All grade, % of patients ([2]; TOR 40 mg): 36.4% | Cre elevation All grade, patients ([2]; TOR 40 mg): 4 | Cre elevation ≧ G2, % of patients ([2]; TOR 40 mg): 0 (0) % | Cre elevation ≧ G2, patients ([2]; TOR 40 mg): 0 (0) | GOT elevation All grade, % of patients ([2]; TOR 40 mg): 0 (0) % | GOT elevation All grade, patients ([2]; TOR 40 mg): 0 (0) | GOT elevation ≧ G2, % of patients ([2]; TOR 40 mg): 0 (0) % | GOT elevation ≧ G2, patients ([2]; TOR 40 mg): 0 (0) | GPT elevation All grade, % of patients ([2]; TOR 40 mg): 0 (0) % | GPT elevation All grade, patients ([2]; TOR 40 mg): 0 (0) | GPT elevation ≧ G2, % of patients ([2]; TOR 40 mg): 0 (0) % | GPT elevation ≧ G2, patients ([2]; TOR 40 mg): 0 (0) | Hot flush G0, % of patients ([2]; TOR 40 mg): 100% | Hot flush G0, patients ([2]; TOR 40 mg): 14 | Hot flush G1, % of patients ([2]; TOR 40 mg): 0 (0) % | Hot flush G1, patients ([2]; TOR 40 mg): 0 (0) | Hot flush G2, % of patients ([2]; TOR 40 mg): 0 (0) % | Hot flush G2, patients ([2]; TOR 40 mg): 0 (0) | Hyperglycemia All grade, % of patients ([2]; TOR 40 mg): 0 (0) % | Hyperglycemia All grade, patients ([2]; TOR 40 mg): 0 (0) | Hyperglycemia ≧ G2, % of patients ([2]; TOR 40 mg): 0 (0) % | Hyperglycemia ≧ G2, patients ([2]; TOR 40 mg): 0 (0) | LDH elevation All grade, % of patients ([2]; TOR 40 mg): 0 (0) % | LDH elevation All grade, patients ([2]; TOR 40 mg): 0 (0) | LDH elevation ≧ G2, % of patients ([2]; TOR 40 mg): 0 (0) % | LDH elevation ≧ G2, patients ([2]; TOR 40 mg): 0 (0) | LDL elevation All grade, % of patients ([2]; TOR 40 mg): 0 (0) % | LDL elevation All grade, patients ([2]; TOR 40 mg): 0 (0) | LDL elevation ≧ G2, % of patients ([2]; TOR 40 mg): 0 (0) % | LDL elevation ≧ G2, patients ([2]; TOR 40 mg): 0 (0) | Low PLT All grade, % of patients ([2]; TOR 40 mg): 0 (0) % | Low PLT All grade, patients ([2]; TOR 40 mg): 0 (0) | Low PLT ≧ G2, % of patients ([2]; TOR 40 mg): 0 (0) % | Low PLT ≧ G2, patients ([2]; TOR 40 mg): 0 (0) | Low WBC All grade, % of patients ([2]; TOR 40 mg): 11.1% | Low WBC All grade, patients ([2]; TOR 40 mg): 1 | Low WBC ≧ G2, % of patients ([2]; TOR 40 mg): 11.1% | Low WBC ≧ G2, patients ([2]; TOR 40 mg): 1 | T. Bil elevation All grade, % of patients ([2]; TOR 40 mg): 0 (0) % | T. Bil elevation All grade, patients ([2]; TOR 40 mg): 0 (0) | T. Bil elevation ≧ G2, % of patients ([2]; TOR 40 mg): 0 (0) % | T. Bil elevation ≧ G2, patients ([2]; TOR 40 mg): 0 (0) | TG elevation All grade, % of patients ([2]; TOR 40 mg): 12.5% | TG elevation All grade, patients ([2]; TOR 40 mg): 1 | TG elevation ≧ G2, % of patients ([2]; TOR 40 mg): 0 (0) % | TG elevation ≧ G2, patients ([2]; TOR 40 mg): 0 (0) | Weight, max ([2]; TOR 40 mg): 73.4 kg | Weight, mean ([2]; TOR 40 mg): 53.2 kg | Weight, median ([2]; TOR 40 mg): 51.7 kg | Weight, min ([2]; TOR 40 mg): 45.0 kg | Cre elevation All grade, % of patients ([2]; TOR 120 mg (1)): 27.3% | Cre elevation All grade, patients ([2]; TOR 120 mg (1)): 3 | Cre elevation ≧ G2, % of patients ([2]; TOR 120 mg (1)): 0 (0) % | Cre elevation ≧ G2, patients ([2]; TOR 120 mg (1)): 0 (0) | GOT elevation All grade, % of patients ([2]; TOR 120 mg (1)): 16.7% | GOT elevation All grade, patients ([2]; TOR 120 mg (1)): 2 | GOT elevation ≧ G2, % of patients ([2]; TOR 120 mg (1)): 8.3% | GOT elevation ≧ G2, patients ([2]; TOR 120 mg (1)): 1 | GPT elevation All grade, % of patients ([2]; TOR 120 mg (1)): 8.3% | GPT elevation All grade, patients ([2]; TOR 120 mg (1)): 1 | GPT elevation ≧ G2, % of patients ([2]; TOR 120 mg (1)): 8.3% | GPT elevation ≧ G2, patients ([2]; TOR 120 mg (1)): 1 | Hot flush G0, % of patients ([2]; TOR 120 mg (1)): 69.2% | Hot flush G0, patients ([2]; TOR 120 mg (1)): 9 | Hot flush G1, % of patients ([2]; TOR 120 mg (1)): 15.4% | Hot flush G1, patients ([2]; TOR 120 mg (1)): 2 | Hot flush G2, % of patients ([2]; TOR 120 mg (1)): 15.4% | Hot flush G2, patients ([2]; TOR 120 mg (1)): 2 | Hyperglycemia All grade, % of patients ([2]; TOR 120 mg (1)): 0 (0) % | Hyperglycemia All grade, patients ([2]; TOR 120 mg (1)): 0 (0)
